From PubChem BioAssay AID330 (DTP/NCI, 2004)
Values joined by “and” are separate entries in the source; they are usually repeats but may differ in a detail not shown here. Identical values can stand only once. Toxic doses and inconclusive results are not listed. Square brackets hold non-standard residues; d marks the D form. Peptide text beside a SMILES is read from it. * marks the point of attachment. Cbz = O=C(OCc1ccccc1)*; Nva = CCC[CH](N)C(=O)O

Tested on: P388 leukemia ip, CD2F1 mice, survival T/C
Assay: NCI In Vivo Anticancer Drug Screen. Data for tumor model P388 Leukemia (intraperitoneal) in CD2F1 (CDF1) mice
Conditions: endpoint: median survival time, higher = longer survival
Outline: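 Mice carrying the transplanted tumor received test compound or vehicle. Survival was recorded in each group, and the value is the treated-group measurement divided by that of the vehicle-treated control group.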

[1] = dose: 50.0 mg/kg/injection, schedule: Q01DX005 (ip), vehicle: Klucel (hydroxypropylcellulose) (HPC)
[2] = dose: 100.0 mg/kg/injection, schedule: Q01DX005 (ip), vehicle: Klucel (hydroxypropylcellulose) (HPC)
[3] = dose: 200.0 mg/kg/injection, schedule: Q01DX005 (ip), vehicle: Klucel (hydroxypropylcellulose) (HPC)

O=P1(N(CCCl)CCCl)NCCCO1 (configuration not stated)
T/C (dose: 4.0 mg/kg/injection, schedule: Q01DX009 (ip), vehicle: saline): 116 % of control and 122 % of control | T/C (dose: 6.25 mg/kg/injection, schedule: Q01DX009 (ip), vehicle: saline): 150 % of control and 151 % of control | T/C (dose: 8.0 mg/kg/injection, schedule: Q01DX009 (ip), vehicle: saline): 150 % of control | T/C (dose: 10.0 mg/kg/injection, schedule: Q04DX003 (iv), vehicle: saline): 119 % of control | T/C (dose: 12.5 mg/kg/injection, schedule: Q01DX009 (ip), vehicle: saline): 153 % of control and 185 % of control and 192 % of control | T/C (dose: 15.0 mg/kg/injection, schedule: Q04DX003 (ip), vehicle: saline): 150 % of control | T/C (dose: 16.0 mg/kg/injection, schedule: Q01DX009 (ip), vehicle: saline): 183 % of control and 188 % of control | T/C (dose: 16.2 mg/kg/injection, schedule: Q04DX003 (ip), vehicle: saline): 153 % of control | T/C (dose: 20.0 mg/kg/injection, schedule: Q01DX009 (ip), vehicle: saline): 187 % of control | T/C (dose: 20.0 mg/kg/injection, schedule: Q04DX003 (ip), vehicle: water): 164 % of control | T/C (dose: 20.0 mg/kg/injection, schedule: Q04DX003 (iv), vehicle: saline): 158 % of control | T/C (dose: 22.2 mg/kg/injection, schedule: Q01DX009 (ip), vehicle: saline): 213 % of control | T/C (dose: 25.0 mg/kg/injection, schedule: Q04DX003 (ip), vehicle: water): 110 % of control | T/C (dose: 27.0 mg/kg/injection, schedule: Q04DX003 (ip), vehicle: saline): 178 % of control | T/C (dose: 28.8 mg/kg/injection, schedule: Q01DX005 (ip), vehicle: saline): 190 % of control | T/C (dose: 30.0 mg/kg/injection, schedule: Q01DX010 (ip), vehicle: water): 272 % of control | T/C (dose: 30.0 mg/kg/injection, schedule: Q04DX003 (ip), vehicle: saline): 195 % of control | T/C (dose: 31.3 mg/kg/injection, schedule: Q01DX001 (iv), vehicle: saline): 174 % of control | T/C (dose: 32.4 mg/kg/injection, schedule: Q04DX002 (ip), vehicle: saline): 163 % of control and 178 % of control | T/C (dose: 33.3 mg/kg/injection, schedule: Q01DX009 (ip), vehicle: saline): 261 % of control | T/C (dose: 36.0 mg/kg/injection, schedule: Q01DX009 (ip), vehicle: saline): 258 % of control | T/C (dose: 38.9 mg/kg/injection, schedule: Q04DX003 (ip), vehicle: saline): 227 % of control | T/C (dose: 40.0 mg/kg/injection, schedule: Q04DX003 (ip), vehicle: saline): 197 % of control and 204 % of control | T/C (dose: 40.0 mg/kg/injection, schedule: Q04DX003 (ip), vehicle: water): 225 % of control | T/C (dose: 40.0 mg/kg/injection, schedule: Q04DX003 (iv), vehicle: saline): 203 % of control | T/C (dose: 45.0 mg/kg/injection, schedule: Q01DX010 (ip), vehicle: water): 240 % of control | T/C (dose: 45.0 mg/kg/injection, schedule: Q04DX003 (ip), vehicle: saline): 324 % of control | T/C (dose: 48.0 mg/kg/injection, schedule: Q01DX005 (ip), vehicle: saline): 240 % of control | T/C (dose: 48.0 mg/kg/injection, schedule: Q01DX009 (ip), vehicle: saline): 118 % of control | T/C (dose: 50.0 mg/kg/injection, schedule: Q01DX001 (ip), vehicle: water): 157 % of control and 160 % of control | T/C (dose: 50.0 mg/kg/injection, schedule: Q01DX009 (ip), vehicle: water): 103 % of control | T/C (dose: 50.0 mg/kg/injection, schedule: Q04DX003 (ip), vehicle: water): 198 % of control and 214 % of control | T/C (dose: 54.0 mg/kg/injection, schedule: Q04DX002 (ip), vehicle: saline): 209 % of control and 213 % of control | T/C (dose: 60.0 mg/kg/injection, schedule: Q01DX009 (ip), vehicle: saline): 99 % of control | T/C (dose: 60.0 mg/kg/injection, schedule: Q04DX003 (ip), vehicle: saline): 274 % of control | T/C (dose: 62.5 mg/kg/injection, schedule: Q01DX001 (iv), vehicle: saline): 220 % of control | T/C (dose: 64.0 mg/kg/injection, schedule: Q01DX009 (ip), vehicle: saline): 187 % of control and 194 % of control | T/C (dose: 64.8 mg/kg/injection, schedule: Q04DX003 (ip), vehicle: saline): 317 % of control | T/C (dose: 70.0 mg/kg/injection, schedule: Q04DX003 (ip), vehicle: saline): 225 % of control | T/C (dose: 73.0 mg/kg/injection, schedule: Q04DX003 (ip), vehicle: saline): 300 % of control | T/C (dose: 75.0 mg/kg/injection, schedule: Q01DX009 (ip), vehicle: saline): 157 % of control | T/C (dose: 75.0 mg/kg/injection, schedule: Q01DX010 (ip), vehicle: water): 118 % of control | T/C (dose: 75.0 mg/kg/injection, schedule: Q04DX003 (ip), vehicle: saline): 358 % of control | T/C (dose: 80.0 mg/kg/injection, schedule: Q01DX001 (ip), vehicle: saline): 155 % of control | T/C (dose: 80.0 mg/kg/injection, schedule: Q04DX003 (ip), vehicle: saline): 216 % of control and 284 % of control | T/C (dose: 80.0 mg/kg/injection, schedule: Q04DX003 (ip), vehicle: water): 269 % of control | T/C (dose: 80.0 mg/kg/injection, schedule: Q04DX003 (iv), vehicle: saline): 194 % of control | T/C (dose: 90.0 mg/kg/injection, schedule: Q04DX002 (ip), vehicle: saline): 220 % of control and 228 % of control | T/C (dose: 100.0 mg/kg/injection, schedule: Q01DX001 (ip), vehicle: water): 199 % of control and 221 % of control | T/C (dose: 100.0 mg/kg/injection, schedule: Q04DX003 (ip), vehicle: water): 288 % of control and 324 % of control | T/C (dose: 108.0 mg/kg/injection, schedule: Q04DX003 (ip), vehicle: saline): 152 % of control | T/C (dose: 119.0 mg/kg/injection, schedule: Q01DX001 (ip), vehicle: saline): 245 % of control | T/C (dose: 125.0 mg/kg/injection, schedule: Q01DX001 (iv), vehicle: saline): 350 % of control | T/C (dose: 125.0 mg/kg/injection, schedule: Q04DX003 (ip), vehicle: saline): 189 % of control and 196 % of control | T/C (dose: 150.0 mg/kg/injection, schedule: Q04DX002 (ip), vehicle: saline): 394 % of control and 409 % of control | T/C (dose: 150.0 mg/kg/injection, schedule: Q## X001 (ip), vehicle: saline): 111 % of control and 231 % of control and 260 % of control | T/C (dose: 160.0 mg/kg/injection, schedule: Q01DX001 (ip), vehicle: saline): 114 % of control and 232 % of control | T/C (dose: 165.0 mg/kg/injection, schedule: Q04DX003 (ip), vehicle: saline): 221 % of control | T/C (dose: 180.0 mg/kg/injection, schedule: Q04DX003 (ip), vehicle: saline): 118 % of control | T/C (dose: 200.0 mg/kg/injection, schedule: Q01DX001 (ip), vehicle: water): 281 % of control and 291 % of control | T/C (dose: 250.0 mg/kg/injection, schedule: Q01DX001 (ip), vehicle: saline): 98 % of control | T/C (dose: 250.0 mg/kg/injection, schedule: Q01DX001 (iv), vehicle: saline): 353 % of control | T/C (dose: 320.0 mg/kg/injection, schedule: Q01DX001 (ip), vehicle: saline): 215 % of control and 252 % of control | T/C (dose: 600.0 mg/kg/injection, schedule: Q01DX001 (ip), vehicle: water): 100 % of control

N#CSC/C(=N\Nc1ccc([N+](=O)[O-])cc1[N+](=O)[O-])c1ccccc1
T/C (dose: 50.0 mg/kg/injection, schedule: Q04DX003 (ip), vehicle: saline with Tween-80): 100 % of control | T/C (dose: 100.0 mg/kg/injection, schedule: Q04DX003 (ip), vehicle: saline with Tween-80): 95 % of control | T/C (dose: 200.0 mg/kg/injection, schedule: Q04DX003 (ip), vehicle: saline with Tween-80): 113 % of control

CCCC(NC(=O)OCc1ccccc1)C(=O)NC(Cc1ccc(O)cc1)C(N)=O (configuration not stated) (Cbz-[Nva]-Tyr-NH2; configuration not given here)
T/C [1]: 92 % of control | T/C [2]: 100 % of control | T/C [3]: 88 % of control

[CH3][Sn]([CH3])([O]S(=O)c1ccc(Cl)cc1)[O]S(=O)c1ccc(Cl)cc1 (configuration not stated)
T/C (dose: 100.0 mg/kg/injection, schedule: Q01DX001 (ip), vehicle: Klucel (hydroxypropylcellulose) (HPC)): 114 % of control | T/C (dose: 200.0 mg/kg/injection, schedule: Q01DX001 (ip), vehicle: Klucel (hydroxypropylcellulose) (HPC)): 105 % of control

CC(=O)c1ccc2c3c(cccc13)C(=O)OC2=O
T/C (dose: 25.0 mg/kg/injection, schedule: Q01DX005 (ip), vehicle: Klucel (hydroxypropylcellulose) (HPC)): 100 % of control | T/C [1]: 100 % of control and 101 % of control | T/C [2]: 102 % of control and 97 % of control | T/C [3]: 104 % of control

Cn1ncc2c(Nc3ccc(F)cc3)c3ccccc3nc21
T/C (dose: 60.0 mg/kg/injection, schedule: Q01DX005 (ip), vehicle: Klucel (hydroxypropylcellulose) (HPC)): 97 % of control | T/C (dose: 120.0 mg/kg/injection, schedule: Q01DX005 (ip), vehicle: Klucel (hydroxypropylcellulose) (HPC)): 95 % of control | T/C (dose: 240.0 mg/kg/injection, schedule: Q01DX005 (ip), vehicle: Klucel (hydroxypropylcellulose) (HPC)): 90 % of control

Cc1nc2sc3cc4ccccc4cc3n2c(=O)c1CN1CCCCC1
T/C (dose: 25.0 mg/kg/injection, schedule: Q04DX002 (ip), vehicle: Klucel (hydroxypropylcellulose) (HPC)): 98 % of control | T/C (dose: 50.0 mg/kg/injection, schedule: Q04DX002 (ip), vehicle: Klucel (hydroxypropylcellulose) (HPC)): 113 % of control | T/C (dose: 100.0 mg/kg/injection, schedule: Q04DX002 (ip), vehicle: Klucel (hydroxypropylcellulose) (HPC)): 113 % of control
